Laboratory results taken from US20250270159A1, “1-(CYCLOBUTANEMETHYLIDENE)-2, 4, 5-TRIMETHOXYBENZENE COMPOUND AND PREPARATION METHOD AND USE THEREOF” (CHENGDU XINRUI TAIKANG TECHNOLOGY CO., LTD., priority 2023, published 2025).

Columns and labels:
[1] = tested on: rat model of lithium-pilocarpine-induced epilepsy; experiment: Rat model of lithium-pilocarpine-induced epilepsy (SE), highest seizure grade score; assay type: in vivo, Sprague Dawley (SD) rats; conditions: 50 mg/kg intraperitoneal, 1 h after SE onset; acute phase; Racine 0-6
Protocol: (1) Experimental Animals: SPF Adult Male Sprague Dawley (SD) Rats, with a Weight of 200-250 g.
Methylscopolamine bromide, lithium chloride, and pilocarpine were weighed, and experimental drugs were dissolved to working concentrations (100 mg/mL of lithium chloride solution, 1 mg/mLof methylscopolamine bromide solution, and 20 mg/mL of pilocarpine solution) with 0.9% saline. Rats were injected intraperitoneally with lithium chloride (a dose of 127 mg/kg), and 18-20 h later, scopolamine methylbromide (a dose of 1 mg/kg) was injected intraperitoneally. […] Thereafter, an additional dose of 10 mg/kg pilocarpine was injected intraperitoneally every 30 min until the onset of a grade IV or higher status epilepticus (SE)-like seizure without significant intermittent intervals, with a maximum dose of 60 mg/kg.
Model inclusion criterion: experimental animals presenting continuous seizures of grade IV or higher for 1 h was judged as successful modeling.
The rats with successful modeling were randomly divided into three groups, namely a model group, a CTMB group, and a sodium valproate (VPA) group. […]
Referring to the grading scale of Racine scores, the seizure symptoms of each group of rats after the drug intervention were observed, and the seizure grades of each group of rats in the acute phase were recorded. […]

[2] = tested on: IL-1; experiment: IL-1 in cerebral cortex of TBI rats; assay type: in vivo, SD rats; conditions: 30 mg/kg ip 2 h after TBI; 24 h after administration; FIG. 3
Protocol: The experimental grouping and drug administration plan were as follows. • Sham operation group (Group P): saline was given with the same volume as in the CTMB group; • Model group (T group): a blank emulsion was given with the same volume as in the CTMB group; • Medium dose group (Group M): a dose of 30 mg/kg of CTMB emulsion injection was given.
The experimental grouping and drug administration plan were the same as the test 3. After 2 h of the TBI modeling, different groups of rats were administered intraperitoneally. After 24 h of the administration, the rats were deeply anesthetized, the head was severed and the brain was removed, about 60-120 mg of hemisphere cortex was taken out from the hemisphere on the blood side, 10 times the volume of ice-cold centrifugal buffer used for biochemical assays was added, homogenization was carried out in an ice bath for 10 min, and centrifugation was carried out at 4° C. and 14000 rpm/min for 30 min. The supernatant was extracted, and inflammatory factors IL-1, IL-6, and TNF-α were tested according to the instructions of IL-1, IL-6, and TNF-α assay kits, respectively.

[3] = tested on: ischemic stroke induced by the filament technique in rats; experiment: Acute phase of ischemic stroke induced by the filament technique (MCAO), short-term neurological deficit score; assay type: in vivo; conditions: for mNSS score / Garcia score: 24 h after MCAO modeling; for mNSS score: scale 0-18, higher worse; for Garcia score: scale 3-18, lower worse
Protocol: Zea Longa score was used to determine whether the modeling was successful after 2 h of MCAO surgery, and rats with successful modeling were taken and randomly grouped for administering drugs.
The rats were randomly divided into a sham operation group (Sham group, given a blank emulsion with a volume equal to that of the high-dose CTMB group), a model group (Vehicle group, given a blank emulsion with a volume equal to that of the high-dose CTMB group), a low-dose CTMB group (CTMB-L group, 10 mg/kg), a high-dose CTMB group (CTMB-H group, 20 mg/kg), and an edaravone dexborneol injection concentrated solution group (EDB group, commercially available, 3 mg/kg). 10 rats were included in each group, which were administered by intraperitoneal injection. It should be noted that in the experiment, the mode of administration for rats was intraperitoneal injection, and a ratio of the effective dose of CTMB, the active ingredient in the emulsion injection, to the unit mass of the human body was within a range of 0.2 mg-4.0 mg/kg, which referred to the ratio of the effective dose of CTMB, the active ingredient in the emulsion injection, to the unit mass of the human body during intravenous infusion, which was extrapolated from the effective dose of the rats. Considering the different bioavailability, peak concentration, and peak time of the drug due to different species and different modes of administration, the effective dose of the active ingredient CTMB in the emulsion injection to the unit mass of human body was finally determined to be 0.2 mg-4.0 mg/kg through conversion.
The rats were fasted for 12 h before procedure, and the rats were anesthetized with 10% chloral hydrate (350 mg/kg, i.p.). The rats were fixed in the supine position, and the body temperature was maintained at about 37° C. For neck preparation, a median neck incision was made, the muscle and fascia were separated along the inner edge of the sternocleidomastoid muscle to expose the right side, the common carotid artery (CCA), external carotid artery (ECA), and internal carotid artery (ICA) were separated bluntly, and the lines were disposed of proximally in the CCA proximal end, ICA, and ECA for backup. The CCA proximal end and ECA were ligatured, and an arterial clip was used to temporarily close the ICA, then a small hole was poked at a position of CCA having about 4 mm from the bifurcation with a needle. The filament was inserted into the ICA through the CCA, the arterial clipped on ICA was loosened, and the filament was slowly advanced. When the mark on the filament reached the bifurcation and a slight resistance was felt, the thin wire at ICA was tightened, and saline was used to clean the wound and then suture was performed. The sham procedure was the same as the experimental group except that no filament was inserted. […]
Referring to the Zea Longa Neurologic Function Score (Longa EZ, Weinstein PR, Carlson S, Cummins R. Reversible middle cerebral artery occlusion without craniectomy in rats. Stroke. 1989 January; 20(1):84-91. doi: 10.1161/01.str.20.1.84.), rats were scored after 2 h of procedure when they were awake from anesthesia. […]
The neural function of the rats was comprehensively evaluated after 24 h of modeling using the modified mNSS score and Garcia score, and mNSS scoring criteria was shown in Table 3 and Garcia scoring criteria was shown in Table 4. The rats were evaluated for locomotion, sensation, and climbing, and symmetry of limbs. […]

COc1cc(OC)c(OC)cc1C=C1CCC1 [CTMB, 1-(cyclobutylidenemethyl)-2,4,5-trimethoxybenzene]
Seizure grade score (highest, SE model rats) [1]: 4.38 ± 0.52
content of IL-1 in cerebral cortex tissue [2]: significantly reduced
toxic side effects associated with administration ([3]; 10 and 20 mg/kg ip, MCAO rats, acute phase test): No toxic side effects
mNSS score ([3]; CTMB-H 20 mg/kg ip): 6.65 ± 2.30^##, **
Garcia score ([3]; CTMB-H 20 mg/kg ip): 10.05 ± 1.81^##, **
mNSS score ([3]; CTMB-L 10 mg/kg ip): 6.88 ± 2.26^##, **
Garcia score ([3]; CTMB-L 10 mg/kg ip): 9.65 ± 1.02^##, *
